Values after ≈ are worked out from the molar mass of the structure shown. Read-outs that look alike come from different tables or passages of the source.
Experiments:
[1] = test system: C. jejuni RDK 135 (ATCC 33560); assay: MIC broth microdilution, C. jejuni; format: cell-based; details: Campylobacter jejuni, ATCC33560; read-out: MIC C. jejuni RDK 135 (ATCC 33560)
Procedure: (§1) Antimicrobial testing was carried out by the broth microdilution method in 96-well plate format following the Clinical and Laboratory Standards Institute (CLSI) guidelines and European Committee on Antimicrobial Susceptibility Testing (EUCAST) recommendations. Bacterial suspension of specific bacterial strain equivalent to 0.5 McFarland turbidity standard was diluted with cation-adjusted Mueller Hinton broth with TES (Thermo Fisher Diagnostic, Landsmeer, The Netherlands), to obtain a final inoculum of 10^5 CFU/mL. Compounds dissolved in DMSO and inoculum were mixed together and incubated for 18–20 h at 35 °C. Suspensions of Mycobacterium sp. were prepared into a tube of Middelbrook 7H9 broth supplemented with 5% OADC (Thermo Scientific, Trek Diagnostic Systems, West Sussex, UK) and incubated for at least 10 days. After incubation the minimal inhibitory concentration (MIC) values were determined by visual inspection as the lowest dilution of compounds showing no turbidity. Tetracycline was used as a positive control on every assay plate.

MRSA (QA-11.7) = assay: MIC broth microdilution, MRSA QA-11.7; format: cell-based, methicillin-resistant S. aureus; details: Staphylococcus aureus, 20 h, read-out: MIC MRSA (QA-11.7)
Procedure: as §1

[2] = test system: S. alachua RDK 030c (QA-1482/04); assay: MIC broth microdilution, S. alachua; format: cell-based; details: Salmonella; read-out: MIC S. alachua RDK 030c (QA-1482/04)
Procedure: as §1

E. coli Topo IV = biological target: T1, E. coli Topo IV (Escherichia coli, UniProt P0AFI2); assay: Topo IV Relaxation High Throughput Plate assay, E. coli; format: biochemical
T1 construct: purchased Inspiralis (Norwich, UK)
Procedure: A Topo IV Relaxation High Throughput Plate assay kit, purchased from Inspiralis (Norwich. UK) was used to determine IC50 values of compounds on S. aureus and E. coli. […] Biotinylated oligonucleotide in wash buffer was immobilized onto the wells, and the excess oligonucleotide was washed off with wash buffer and ultrapure water. 1.5 U of S. aureus or E. coli […] enzyme was incubated together with 0.75 μg of supercoiled pNO1 plasmid as a substrate in the presence of 3 μL inhibitor solution in 10% DMSO and 0.008% Tween 20 at 37 °C for 30 min in a final reaction volume of 30 μL in dilution buffer (50 mM Tris-HCl (pH 7.5), 1 mM DTT, 1 mM EDTA, 40% (w/v) glycerol for S. aureus and 40 mM HEPES, KOH (pH 7.6), 100 mM potassium glutamate, 1 mM DTT, 1 mM EDTA, and 40% (v/v) glycerol for E. coli). The reactions were stopped by adding the TF buffer (50 mM NaOAc (pH 4.7), 50 mM NaCl, and 50 mM MgCl2) to allow the triplex formation (biotin-oligonucleotide-plasmid) for additional 30 min. Afterward, the unbound plasmid was washed off using TF buffer, and the solution of Promega Diamond dye in T10 buffer (10 mM Tris-HCl (pH 8.0), 1 mM EDTA) was added. […] IC50 value represents the mean of two to four independent measurements.

E. coli DNA gyrase = biological target: T2, E. coli DNA gyrase (Escherichia coli, UniProt P0AES4); assay: Gyrase Supercoiling High Throughput Plate assay, E. coli; format: biochemical
T2 construct: purchased Inspiralis (Norwich, UK)
Procedure: (§2) A Gyrase Supercoiling High Throughput Plate assay kit, purchased from Inspiralis (Norwich. UK) was used to determine IC50 values of compounds on S. aureus and E. coli. […] Biotinylated oligonucleotide in wash buffer was immobilized onto the wells, and the excess oligonucleotide was washed off with wash buffer and ultrapure water. […] The reactions were stopped by adding the TF buffer (50 mM NaOAc (pH 4.7), 50 mM NaCl, and 50 mM MgCl2) to allow the triplex formation (biotin-oligonucleotide-plasmid) for additional 30 min. Afterward, the unbound plasmid was washed off using TF buffer, and the solution of Promega Diamond dye in T10 buffer (10 mM Tris-HCl (pH 8.0), 1 mM EDTA) was added. […] IC50 value represents the mean of two to four independent measurements.

S. aureus DNA gyrase = biological target: T3, S. aureus DNA gyrase (Staphylococcus aureus, UniProt P20831); assay: biochemical; format: biochemical
T3 construct: purchased Inspiralis (Norwich, UK)
Procedure: as §2

M. smegmatis = assay: MIC, M. smegmatis; format: cell-based, Mycobacterium smegmatis; details: Mycolicibacterium smegmatis; read-out: MIC M. smegmatis
Procedure: as §1

E. coli (QA-11.7) = assay: MIC broth microdilution, E. coli QA-11.7; format: cell-based; details: Escherichia coli, 20 h; multi-resistant isolate (ampicillin, azithromycin, cefotaxime, ertapenem, imipenem and others); read-out: MIC E. coli (QA-11.7)
Procedure: as §1

E. coli (QA-11.3) = assay: MIC broth microdilution, E. coli QA-11.3; format: cell-based; details: Escherichia coli, 20 h; read-out: MIC E. coli (QA-11.3)
Procedure: as §1

E. coli (QA-11.8) = assay: MIC broth microdilution, E. coli QA-11.8; format: cell-based; details: Escherichia coli, 20 h; read-out: MIC E. coli (QA-11.8)
Procedure: as §1

S. aureus (ATCC 29213) = assay: MIC broth microdilution, S. aureus ATCC 29213; format: cell-based; details: Staphylococcus aureus, ATCC29213
Procedure: as §1

E. coli (ATCC 25922) = assay: MIC broth microdilution, E. coli ATCC 25922; format: cell-based; details: Escherichia coli, ATCC25922
Summary of the method: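 Broth microdilution per CLSI/EUCAST: 0.5 McFarland suspensions diluted in cation-adjusted Mueller Hinton broth with TES to a final 10^5 CFU/mL, mixed with compounds in DMSO, incubated 18–20 h at 35 °C. Mycobacterium in Middelbrook 7H9 + 5% OADC, ≥10 days. MIC read visually as lowest dilution without turbidity.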

T3 sequence (P20831 whole entry): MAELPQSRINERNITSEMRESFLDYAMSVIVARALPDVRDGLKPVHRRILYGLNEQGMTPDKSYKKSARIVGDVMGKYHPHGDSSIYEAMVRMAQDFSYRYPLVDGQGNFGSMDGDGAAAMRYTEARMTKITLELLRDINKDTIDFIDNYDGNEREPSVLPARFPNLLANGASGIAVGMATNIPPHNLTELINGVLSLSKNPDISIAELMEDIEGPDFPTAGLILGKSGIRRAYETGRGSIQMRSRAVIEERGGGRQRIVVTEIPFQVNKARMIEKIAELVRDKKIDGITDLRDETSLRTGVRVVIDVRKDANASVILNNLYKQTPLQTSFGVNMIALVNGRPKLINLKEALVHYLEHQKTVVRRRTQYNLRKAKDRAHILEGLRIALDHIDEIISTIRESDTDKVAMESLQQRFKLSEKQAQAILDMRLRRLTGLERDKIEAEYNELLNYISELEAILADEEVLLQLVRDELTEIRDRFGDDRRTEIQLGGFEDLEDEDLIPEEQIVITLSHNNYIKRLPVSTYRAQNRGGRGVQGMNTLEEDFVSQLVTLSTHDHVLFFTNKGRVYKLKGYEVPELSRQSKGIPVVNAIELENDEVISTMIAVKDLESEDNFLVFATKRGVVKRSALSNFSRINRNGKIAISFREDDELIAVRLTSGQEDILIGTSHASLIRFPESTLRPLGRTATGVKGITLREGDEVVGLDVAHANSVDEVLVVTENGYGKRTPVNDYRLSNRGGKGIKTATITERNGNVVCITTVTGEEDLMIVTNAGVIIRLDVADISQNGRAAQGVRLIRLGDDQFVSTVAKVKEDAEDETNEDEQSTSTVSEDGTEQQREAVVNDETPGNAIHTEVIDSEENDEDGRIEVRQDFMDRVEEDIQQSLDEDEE
T3 sequence (P0A0K8 whole entry partner): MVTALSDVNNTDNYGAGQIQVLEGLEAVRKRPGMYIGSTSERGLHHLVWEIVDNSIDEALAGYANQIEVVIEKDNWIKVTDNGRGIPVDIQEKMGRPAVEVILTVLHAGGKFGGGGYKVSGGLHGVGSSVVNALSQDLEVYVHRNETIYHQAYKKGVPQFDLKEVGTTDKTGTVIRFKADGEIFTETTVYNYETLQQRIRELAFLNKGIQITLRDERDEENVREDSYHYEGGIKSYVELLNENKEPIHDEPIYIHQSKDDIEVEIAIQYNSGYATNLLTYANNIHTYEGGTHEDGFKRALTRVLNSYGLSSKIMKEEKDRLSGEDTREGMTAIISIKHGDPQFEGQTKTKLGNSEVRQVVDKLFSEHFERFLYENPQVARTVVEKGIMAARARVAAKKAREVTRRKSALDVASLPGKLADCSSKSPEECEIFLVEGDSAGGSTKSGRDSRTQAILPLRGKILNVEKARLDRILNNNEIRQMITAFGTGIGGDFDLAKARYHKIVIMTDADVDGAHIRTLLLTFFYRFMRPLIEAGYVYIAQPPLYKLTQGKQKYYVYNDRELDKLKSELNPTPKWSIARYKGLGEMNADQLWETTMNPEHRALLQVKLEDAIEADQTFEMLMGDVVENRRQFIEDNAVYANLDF
T2 sequence (P0AES4 whole entry): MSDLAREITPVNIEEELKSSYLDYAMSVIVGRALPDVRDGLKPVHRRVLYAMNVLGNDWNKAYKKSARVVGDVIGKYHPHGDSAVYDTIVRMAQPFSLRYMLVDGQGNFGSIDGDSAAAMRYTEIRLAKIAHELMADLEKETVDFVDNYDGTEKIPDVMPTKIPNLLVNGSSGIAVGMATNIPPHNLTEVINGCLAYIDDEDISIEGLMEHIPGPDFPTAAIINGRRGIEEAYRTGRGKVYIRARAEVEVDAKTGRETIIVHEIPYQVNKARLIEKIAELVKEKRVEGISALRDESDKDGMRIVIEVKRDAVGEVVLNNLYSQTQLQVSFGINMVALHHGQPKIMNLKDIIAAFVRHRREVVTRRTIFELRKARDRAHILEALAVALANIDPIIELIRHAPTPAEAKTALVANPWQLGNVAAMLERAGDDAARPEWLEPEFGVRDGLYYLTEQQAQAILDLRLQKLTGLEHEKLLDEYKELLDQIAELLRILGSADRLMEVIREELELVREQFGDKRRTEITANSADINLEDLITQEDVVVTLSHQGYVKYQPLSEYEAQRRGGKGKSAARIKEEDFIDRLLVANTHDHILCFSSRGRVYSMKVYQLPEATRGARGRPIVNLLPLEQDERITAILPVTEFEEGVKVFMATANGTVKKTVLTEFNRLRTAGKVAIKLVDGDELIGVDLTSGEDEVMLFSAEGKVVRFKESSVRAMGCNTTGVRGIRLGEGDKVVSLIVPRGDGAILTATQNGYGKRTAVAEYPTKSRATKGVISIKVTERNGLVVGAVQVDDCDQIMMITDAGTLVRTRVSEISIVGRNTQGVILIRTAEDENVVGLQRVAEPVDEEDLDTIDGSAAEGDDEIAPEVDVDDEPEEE
T1 sequence (P0AFI2 whole entry): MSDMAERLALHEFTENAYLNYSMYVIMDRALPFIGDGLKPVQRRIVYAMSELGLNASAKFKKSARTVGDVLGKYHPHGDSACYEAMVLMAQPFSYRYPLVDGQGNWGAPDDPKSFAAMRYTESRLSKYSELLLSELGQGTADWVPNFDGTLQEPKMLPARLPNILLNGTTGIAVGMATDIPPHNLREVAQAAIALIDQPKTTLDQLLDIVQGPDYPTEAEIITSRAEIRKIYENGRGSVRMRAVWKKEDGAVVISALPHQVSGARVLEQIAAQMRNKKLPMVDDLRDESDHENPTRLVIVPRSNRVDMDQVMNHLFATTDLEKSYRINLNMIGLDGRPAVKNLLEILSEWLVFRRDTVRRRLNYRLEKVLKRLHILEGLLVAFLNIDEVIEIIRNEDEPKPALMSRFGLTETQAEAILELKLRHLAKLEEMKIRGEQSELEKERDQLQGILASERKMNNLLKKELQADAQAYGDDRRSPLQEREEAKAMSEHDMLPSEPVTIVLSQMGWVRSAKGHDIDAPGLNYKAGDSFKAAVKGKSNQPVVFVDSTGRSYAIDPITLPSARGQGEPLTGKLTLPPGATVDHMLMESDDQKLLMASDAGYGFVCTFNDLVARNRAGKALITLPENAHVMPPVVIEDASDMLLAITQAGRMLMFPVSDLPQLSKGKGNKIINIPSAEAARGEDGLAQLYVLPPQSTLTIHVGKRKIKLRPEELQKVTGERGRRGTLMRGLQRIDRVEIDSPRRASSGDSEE
T1 sequence (P20083 whole entry, further chain): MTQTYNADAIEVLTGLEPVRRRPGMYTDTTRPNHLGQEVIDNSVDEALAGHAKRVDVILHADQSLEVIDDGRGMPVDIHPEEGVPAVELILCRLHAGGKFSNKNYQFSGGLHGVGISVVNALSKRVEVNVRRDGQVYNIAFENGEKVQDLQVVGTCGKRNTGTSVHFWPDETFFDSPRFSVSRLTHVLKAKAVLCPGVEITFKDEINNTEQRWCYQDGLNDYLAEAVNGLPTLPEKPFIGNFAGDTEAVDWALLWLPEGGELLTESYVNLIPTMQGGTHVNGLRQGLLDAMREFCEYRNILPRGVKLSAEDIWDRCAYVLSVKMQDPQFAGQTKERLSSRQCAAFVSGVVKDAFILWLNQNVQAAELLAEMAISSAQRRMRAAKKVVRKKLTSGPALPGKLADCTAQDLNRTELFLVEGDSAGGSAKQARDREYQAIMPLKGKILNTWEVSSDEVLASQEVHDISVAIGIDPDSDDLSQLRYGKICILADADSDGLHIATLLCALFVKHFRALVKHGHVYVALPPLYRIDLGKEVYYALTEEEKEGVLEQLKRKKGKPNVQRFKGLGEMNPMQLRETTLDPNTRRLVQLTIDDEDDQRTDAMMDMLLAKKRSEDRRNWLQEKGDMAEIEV

`COc1ccc(CNC2CCN(CCc3ccnc4ccc(OC)nc34)CC2)cn1` [Compound 22, 1-(2-(6-Methoxy-1,5-naphthyridin-4-yl)ethyl)-N-((6-methoxypyridin-3-yl)methyl)piperidin-4-amine] gave an MIC [1] of 2 µg/mL (≈ 4.91 µM), an MIC (MRSA (QA-11.7)) of 1 µg/mL (≈ 2.45 µM) and an MIC [2] of 64 µg/mL (≈ 157 µM). The IC50 (E. coli Topo IV) was over 100 µM, the IC50 (E. coli DNA gyrase) was 7.24 ± 0.34 µM and the “LE DNA Gyrase E. coli” value (E. coli DNA gyrase; LE = (1.37/HA) × pIC50) was 0.23. The “LE DNA Gyrase S. aureus” value (S. aureus DNA gyrase; LE = (1.37/HA) × pIC50) was 0.30, the IC50 (S. aureus DNA gyrase; fluorescence plate supercoiling assay, mean of two to four measurements) was 0.34 ± 0.05 µM and the MIC (M. smegmatis) was 16 µg/mL (≈ 39.3 µM). For the same molecule, the MIC (E. coli (QA-11.7)) was 2 µg/mL (≈ 4.91 µM), the MIC (E. coli (QA-11.3)) was 4 µg/mL (≈ 9.82 µM) and the MIC (E. coli (QA-11.8)) was 8 µg/mL (≈ 19.6 µM). For the same molecule, the MIC (S. aureus (ATCC 29213); S. aureus ATCC 29213, read-out: S. aureus MIC (converted)) was 1.19 µM, the MIC (S. aureus (ATCC 29213); read-out: MIC S. aureus (ATCC 29213)) was 0.5 µg/mL and the MIC (E. coli (ATCC 25922); E. coli ATCC 25922, read-out: E. coli MIC (converted)) was 38.1 µM. The MIC (E. coli (ATCC 25922); read-out: MIC E. coli (ATCC 25922)) was 16 µg/mL.

Source: paper PMC8300687, “A Fine-Tuned Lipophilicity/Hydrophilicity Ratio Governs Antibacterial Potency and Selectivity of Bifurcated Halogen Bond-Forming NBTIs” (Antibiotics, 2021)
